Measured values as given in US6737383B1, “Herbicidal oxadiazolidines” (priority 1999, dated 2004).

Tests used:
morningglory = test: Test B pre/postemergence morningglory; type: in vivo, Ipomoea hederacea
Summary of the method: (§1)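 Test chemicals in a non-phytotoxic solvent mixture with surfactant were sprayed preemergence onto planted seeds and postemergence onto plants 2 to 18 cm tall (1- to 4-leaf stage). After twelve to sixteen days in a greenhouse, injury was visually rated against untreated controls from 0 (no effect) to 10 (complete control).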

cocklebur = test: Test B pre/postemergence cocklebur; type: in vivo, Xanthium strumarium
Summary of the method: as §1

corn = test: Test B pre/postemergence corn; type: in vivo, Zea mays
Summary of the method: as §1

purple nutsedge = test: Test B pre/postemergence purple nutsedge; type: in vivo, Cyperus rotundus
Summary of the method: as §1

pigweed = test: Test B pre/postemergence pigweed; type: in vivo, Amaranthus retroflexus
Summary of the method: as §1

rape = test: Test B pre/postemergence rape; type: in vivo, Brassica napus
Summary of the method: as §1

smallflower flatsedge = test: Test B flood test smallflower flatsedge; type: in vivo, Cyperus difformis
Summary of the method: (§2)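 Flood test on plants grown to the 2-leaf stage; treated plants kept in greenhouse twelve to sixteen days, then visually rated against controls on a 0 (no effect) to 10 (complete control) scale.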

velvetleaf = test: Test B pre/postemergence velvetleaf; type: in vivo, Abutilon theophrasti
Summary of the method: as §1

soybean = test: Test B pre/postemergence soybean; type: in vivo, Glycine max
Summary of the method: as §1

rice = test: Test B flood test rice; type: in vivo, Oryza sativa
Summary of the method: as §2

sugar beet = test: Test B pre/postemergence sugar beet; type: in vivo, Beta vulgaris
Summary of the method: as §1

wheat = test: Test B pre/postemergence wheat; type: in vivo, Triticum aestivum
Summary of the method: as §1

duck salad = test: Test B flood test duck salad; type: in vivo, Heteranthera limosa
Summary of the method: as §2

blackgrass = test: Test B pre/postemergence blackgrass; type: in vivo, Alopecurus myosuroides
Summary of the method: as §1

crabgrass = test: Test B pre/postemergence crabgrass; type: in vivo, Digitaria sanguinalis
Summary of the method: as §1

giant foxtail = test: Test B pre/postemergence giant foxtail; type: in vivo, Setaria faberii
Summary of the method: as §1

[1] = Preemergence, Rate 62 g/ha, scale of 0 to 10 where 0 is no effect and 10 is complete control
[2] = Preemergence, Rate 250 g/ha, scale 0 to 10, 0 is no effect, 10 is complete control
[3] = Preemergence, Rate 500 g/ha, scale of 0 to 10 where 0 is no effect and 10 is complete control
[4] = Rate 62 g/ha, Postemergence, scale of 0 to 10 where 0 is no effect and 10 is complete control
[5] = Rate 125 g/ha, Postemergence, scale 0 to 10
[6] = Rate 125 g/ha, Preemergence, scale of 0 to 10 where 0 is no effect and 10 is complete control
[7] = Rate 500 g/ha, Postemergence, scale 0 to 10
[8] = Rate 62 g/ha, headed Pre-emergence (flood test species), scale 0 to 10 (0 no effect, 10 complete control)
[9] = Rate 125 g/ha, Pre-emergence, flood test species, scale 0 to 10 where 0 is no effect and 10 is complete control
[10] = Rate 250 g/ha, Pre-emergence, flood-test species, scale 0 to 10, 0 is no effect, 10 is complete control
[11] = Rate 500 g/ha, Pre-emergence, flood test species, scale 0 to 10 (0 no effect, 10 complete control)

CC(C)N(C(=O)n1oc(=O)n(CC=Cc2ccccc2)c1=O)c1ccc(F)cc1 [Compound 210]
5: Plant response rating, Giant foxtail (giant foxtail; [3])
7: Morningglory plant response rating (morningglory; [7])
4: Sugarbeets plant response rating (sugar beet; [7]) | Plant response rating, Blackgrass (blackgrass; [3])
0: Morningglory plant response rating (morningglory; [1]) | Morningglory plant response rating (morningglory; [2]) | Plant response rating, Morningglory (morningglory; [3]) | Morningglory plant response rating (morningglory; [6]) | Cocklebur plant response rating (cocklebur; [1]) | Cocklebur plant response rating (cocklebur; [2]) | Plant response rating, Cocklebur (cocklebur; [3]) | Cocklebur plant response rating (cocklebur; [4]) | Cocklebur plant response rating (cocklebur; [5]) | Cocklebur plant response rating (cocklebur; [6]) | Plant response rating (0 to 10; 0 is no effect, 10 is complete control), Cocklebur (cocklebur; Rate 250 g/ha, Postemergence) | Corn plant response rating (corn; [1]) | Corn plant response rating (corn; [2]) | Plant response rating, Corn (corn; [3]) | Corn plant response rating (corn; [4]) | Corn plant response rating (corn; [5]) | Corn plant response rating (corn; [6]) | Plant response rating (0 to 10; 0 is no effect, 10 is complete control), Corn (corn; Rate 250 g/ha, Postemergence) | Corn plant response rating (corn; [7]) | Nutsedge plant response rating (purple nutsedge; [1]) | Nutsedge plant response rating (purple nutsedge; [2]) | Plant response rating, Nutsedge (purple nutsedge; [3]) | Nutsedge plant response rating (purple nutsedge; [4]) | Nutsedge plant response rating (purple nutsedge; [5]) | Nutsedge plant response rating (purple nutsedge; [6]) | Plant response rating (0 to 10; 0 is no effect, 10 is complete control), Nutsedge (purple nutsedge; Rate 250 g/ha, Postemergence) | Nutsedge plant response rating (purple nutsedge; [7]) | Redroot pigweed plant response rating (pigweed; [1]) | Redroot pigweed plant response rating (pigweed; [4]) | Redroot pigweed plant response rating (pigweed; [5]) | Redroot pigweed plant response rating (pigweed; [6]) | Rape plant response rating (rape; [1]) | Rape plant response rating (rape; [2]) | Rape plant response rating (rape; [4]) | Rape plant response rating (rape; [5]) | Rape plant response rating (rape; [6]) | Plant response rating (0 to 10; 0 is no effect, 10 is complete control), Rape (rape; Rate 250 g/ha, Postemergence) | Rape plant response rating (rape; [7]) | S. Flatsedge plant response rating (smallflower flatsedge; [8]) | S. Flatsedge plant response rating (smallflower flatsedge; [9]) | S. Flatsedge plant response rating (smallflower flatsedge; [10]) | S. Flatsedge plant response rating (smallflower flatsedge; [11]) | Velvetleaf plant response rating (velvetleaf; [1]) | Velvetleaf plant response rating (velvetleaf; [2]) | Plant response rating, Velvetleaf (velvetleaf; [3]) | Velvetleaf plant response rating (velvetleaf; [4]) | Velvetleaf plant response rating (velvetleaf; [5]) | Velvetleaf plant response rating (velvetleaf; [6]) | Soybean plant response rating (soybean; [1]) | Soybean plant response rating (soybean; [2]) | Plant response rating, Soybean (soybean; [3]) | Soybean plant response rating (soybean; [6]) | Rice plant response rating (rice; [8]) | Rice plant response rating (rice; [9]) | Rice plant response rating (rice; [10]) | Rice plant response rating (rice; [11]) | Sugarbeets plant response rating (sugar beet; [1]) | Sugarbeets plant response rating (sugar beet; [2]) | Sugarbeets plant response rating (sugar beet; [4]) | Sugarbeets plant response rating (sugar beet; [5]) | Sugarbeets plant response rating (sugar beet; [6]) | Plant response rating (0 to 10; 0 is no effect, 10 is complete control), Sugarbeets (sugar beet; Rate 250 g/ha, Postemergence) | Wheat plant response rating (wheat; [1]) | Wheat plant response rating (wheat; [2]) | Plant response rating, Wheat (wheat; [3]) | Wheat plant response rating (wheat; [4]) | Wheat plant response rating (wheat; [5]) | Wheat plant response rating (wheat; [6]) | Plant response rating (0 to 10; 0 is no effect, 10 is complete control), Wheat (wheat; Rate 250 g/ha, Postemergence) | Ducksalad plant response rating (duck salad; [8]) | Ducksalad plant response rating (duck salad; [9]) | Ducksalad plant response rating (duck salad; [10]) | Ducksalad plant response rating (duck salad; [11]) | Blackgrass plant response rating (blackgrass; [1]) | Blackgrass plant response rating (blackgrass; [2]) | Blackgrass plant response rating (blackgrass; [4]) | Blackgrass plant response rating (blackgrass; [5]) | Blackgrass plant response rating (blackgrass; [6]) | Plant response rating (0 to 10; 0 is no effect, 10 is complete control), Blackgrass (blackgrass; Rate 250 g/ha, Postemergence) | Crabgrass plant response rating (crabgrass; [1]) | Crabgrass plant response rating (crabgrass; [4]) | Crabgrass plant response rating (crabgrass; [5]) | Crabgrass plant response rating (crabgrass; [6]) | Plant response rating (0 to 10; 0 is no effect, 10 is complete control), Crabgrass (crabgrass; Rate 250 g/ha, Postemergence) | Crabgrass plant response rating (crabgrass; [7]) | Giant foxtail plant response rating (giant foxtail; [1]) | Giant foxtail plant response rating (giant foxtail; [4]) | Giant foxtail plant response rating (giant foxtail; [5]) | Giant foxtail plant response rating (giant foxtail; [6]) | Plant response rating (0 to 10; 0 is no effect, 10 is complete control), Giant foxtail (giant foxtail; Rate 250 g/ha, Postemergence) | Giant foxtail plant response rating (giant foxtail; [7])
8: Plant response rating, Redroot pigweed (pigweed; [3]) | Plant response rating, Crabgrass (crabgrass; [3])
3: Plant response rating (0 to 10; 0 is no effect, 10 is complete control), Morningglory (morningglory; Rate 250 g/ha, Postemergence) | Plant response rating, Rape (rape; [3]) | Soybean plant response rating (soybean; [7]) | Plant response rating, Sugarbeets (sugar beet; [3]) | Crabgrass plant response rating (crabgrass; [2]) | Giant foxtail plant response rating (giant foxtail; [2])
6: Redroot pigweed plant response rating (pigweed; [7])
2: Morningglory plant response rating (morningglory; [4]) | Morningglory plant response rating (morningglory; [5]) | Cocklebur plant response rating (cocklebur; [7]) | Redroot pigweed plant response rating (pigweed; [2]) | Plant response rating (0 to 10; 0 is no effect, 10 is complete control), Redroot pigweed (pigweed; Rate 250 g/ha, Postemergence) | Plant response rating (0 to 10; 0 is no effect, 10 is complete control), Velvetleaf (velvetleaf; Rate 250 g/ha, Postemergence) | Blackgrass plant response rating (blackgrass; [7])
1: Soybean plant response rating (soybean; [4]) | Soybean plant response rating (soybean; [5]) | Plant response rating (0 to 10; 0 is no effect, 10 is complete control), Soybean (soybean; Rate 250 g/ha, Postemergence)
